Experimental data from the NIST ThermoML archive (doi:10.1021/je700373r).
Numbers after ± are expanded uncertainties.

Tests used:
[1] = Fluid (supercritical or subcritical phases), Vibrating tube method
[2] = xn = mol fraction of the nth substance listed; conditions: Fluid (supercritical or subcritical phases), Vibrating tube method, x2 = 0

SMILES: O=C=O [carbon dioxide]
- mass density ([1]; 308.15 K, 10000 kPa): 717.2 ± 2.1 kg/m3
- mass density ([1]; 308.15 K, 15000 kPa): 816.1 ± 1.6 kg/m3
- mass density ([1]; 308.15 K, 20000 kPa): 866.1 ± 1 kg/m3
- mass density ([1]; 308.15 K, 30000 kPa): 929 ± 0.8 kg/m3
- mass density ([1]; 308.15 K, 40000 kPa): 971.7 ± 0.7 kg/m3
- mass density ([1]; 313.15 K, 10000 kPa): 636.6 ± 3.3 kg/m3
- mass density ([1]; 313.15 K, 15000 kPa): 781.3 ± 2.1 kg/m3
- mass density ([1]; 313.15 K, 20000 kPa): 840.2 ± 1 kg/m3
- mass density ([1]; 313.15 K, 30000 kPa): 909.7 ± 0.9 kg/m3
- mass density ([1]; 313.15 K, 40000 kPa): 955.5 ± 0.8 kg/m3
- mass density ([1]; 323.15 K, 10000 kPa): 397.3 ± 5.2 kg/m3
- mass density ([1]; 323.15 K, 15000 kPa): 701.8 ± 3.9 kg/m3
- mass density ([1]; 323.15 K, 20000 kPa): 784.9 ± 1.3 kg/m3
- mass density ([1]; 323.15 K, 30000 kPa): 870.3 ± 0.9 kg/m3
- mass density ([1]; 323.15 K, 40000 kPa): 922.8 ± 0.8 kg/m3
- mass density ([1]; 333.15 K, 10000 kPa): 296.1 ± 6.3 kg/m3
- mass density ([1]; 333.15 K, 15000 kPa): 607 ± 4.4 kg/m3
- mass density ([1]; 333.15 K, 20000 kPa): 724.4 ± 1.6 kg/m3
- mass density ([1]; 333.15 K, 30000 kPa): 829.6 ± 1.1 kg/m3
- mass density ([1]; 333.15 K, 40000 kPa): 889.8 ± 0.9 kg/m3

SMILES: O=C=O [carbon dioxide] + CC1=C(/C=C/C(C)=C/C=C/C(C)=C/C=C/C=C(C)/C=C/C=C(C)/C=C/C2=C(C)CCCC2(C)C)C(C)(C)CCC1
- mass density ([2]; 308.15 K, 10000 kPa): 717.2 ± 2.1 kg/m3
- mass density ([2]; 308.15 K, 15000 kPa): 816.1 ± 1.6 kg/m3
- mass density ([2]; 308.15 K, 20000 kPa): 866.1 ± 1 kg/m3
- mass density ([2]; 308.15 K, 30000 kPa): 929 ± 0.8 kg/m3
- mass density ([2]; 308.15 K, 40000 kPa): 971.7 ± 0.7 kg/m3
- mass density ([2]; 313.15 K, 10000 kPa): 636.6 ± 3.3 kg/m3
- mass density ([2]; 313.15 K, 15000 kPa): 781.3 ± 2.1 kg/m3
- mass density ([2]; 313.15 K, 20000 kPa): 840.2 ± 1 kg/m3
- mass density ([2]; 313.15 K, 30000 kPa): 909.7 ± 0.9 kg/m3
- mass density ([2]; 313.15 K, 40000 kPa): 955.5 ± 0.8 kg/m3
- mass density ([2]; 323.15 K, 10000 kPa): 397.3 ± 5.2 kg/m3
- mass density ([2]; 323.15 K, 15000 kPa): 701.8 ± 3.9 kg/m3
- mass density ([2]; 323.15 K, 20000 kPa): 784.9 ± 1.3 kg/m3
- mass density ([2]; 323.15 K, 30000 kPa): 870.3 ± 0.9 kg/m3
- mass density ([2]; 323.15 K, 40000 kPa): 922.8 ± 0.8 kg/m3
- mass density ([2]; 333.15 K, 10000 kPa): 296.1 ± 6.3 kg/m3
- mass density ([2]; 333.15 K, 15000 kPa): 607 ± 4.4 kg/m3
- mass density ([2]; 333.15 K, 20000 kPa): 724.4 ± 1.6 kg/m3
- mass density ([2]; 333.15 K, 30000 kPa): 829.6 ± 1.1 kg/m3
- mass density ([2]; 333.15 K, 40000 kPa): 889.8 ± 0.9 kg/m3
